Assay results from patent EP0376166A1, “Condensed quinoline system compound and process of preparation thereof” (MECT CORPORATION, priority 1988, dated 1990).
≈ marks a conversion by molar mass, not a printed value.

What was measured:
[1] = test system: KB Cell; experiment: Inhibition of multiplication (growth) of KB cells, in vitro; format: cell-based, human; conditions: Homo sapiens, 72 h, concentration for 50% growth inhibition vs control, compound added Day 1, cells counted Day 4, read-out: Conc.(ED50)
Procedure: KB cells, carcinomatous cell tumors, were transferred to in vitro floatation incubator systems, and added respectively with compounds of Examples 1 to 33. The results of cultivation added with these compounds were compared with the results of the control which was not added with any compound.
Cell used: KB Cell (Originating from human mouth epidermal cancer) Culture medium: Eagles minimal essential medium (MEM) supplemented with 10% calf serum Cultivation: 37°C carbon dioxide gas incubator (5% CO₂)
Day 0: KB cells were diluted in the culture medium to adjust the KB cell density to 2 x 10⁴/ml. Three ml of the cell suspension was inoculated in each of 60 mm plastic dishes. Two dishes per standard dosage were used. Day 1: Test compound was added to the medium so that the final concentrations were set to 100, 30, 10, 3 and 1 µg/ml. Day 4: Cells were scraped off from the dish using trypsin, and the cell number was countered using a Corter counter.
In generally accordance with the stipulations set forth by the National Cancer Institute (NCI), U.S.A., the concentration of compound necessary for exerting 50% growth inhibition (ED₅₀) compared to the control was determined. A compound was judged as effective when ED₅₀ was less than 4 µg/ml.

[2] = test system: P-388; experiment: Prolongation of life span in P-388 implanted mice; format: in vivo, CDF mouse; conditions: for response vs control in vivo at 12.5 mg/kg / response vs control in vivo at 25 mg/kg / response vs control in vivo at 50 mg/kg / response vs control in vivo at 100 mg/kg / response vs control in vivo at 200 mg/kg / response vs control in vivo at 400 mg/kg: P388, ip, T/C %, Day 1 and Day 5, P-388 10⁶ cells/mouse i.p., read-out: Ratio of Life Prolongation (%); for response vs control in vivo at 50 mg/kg: dosage 50 mg/kg; for cure: cured mice per group of 6
Procedure: Animal used: CDF mouse (6 mice/group) Tumor: P-388 Number of implanted cells: 10⁶ cells/mouse Implanted site: i.p. Day of administration: Day 1 and Day 5 Dosage: LD₅₀ or 400 mg/kg/day at the maximum

IC50 [1] | Compound | response vs control in vivo at 12.5 mg/kg ([2]; dosage 12.5 mg/kg) | response vs control in vivo at 25 mg/kg ([2]; dosage 25 mg/kg) | response vs control in vivo at 50 mg/kg [2] | cure ([2]; dosage 12.5 mg/kg) | cure ([2]; dosage 25 mg/kg) | response vs control in vivo at 100 mg/kg ([2]; dosage 100 mg/kg) | response vs control in vivo at 200 mg/kg ([2]; dosage 200 mg/kg) | cure ([2]; dosage 200 mg/kg) | response vs control in vivo at 400 mg/kg ([2]; dosage 400 mg/kg) | cure ([2]; dosage 100 mg/kg) | cure ([2]; dosage 400 mg/kg)
< 0.3 µg/mL | COc1cc(NS(C)(=O)=O)ccc1Nc1c2ccccc2nc2c1[nH]c1ccc(NC3OC(COC(C)=O)C(OC(C)=O)C(OC(C)=O)C3OC(C)=O)cc12 (centres unmarked) [Compound 23, N-{4-[(7-(2,3,4,6-tetra-O-acetylglycosyl-1-amino)-10H-indolo[3,2-b]quinoline-11-yl)amino]-3-methoxyphenyl} methanesulfonamide] | 300% | 148% | 58% | 2/6 | 1/6 |  |  |  |  |  | 
< 0.3 µg/mL | COc1cc(NS(C)(=O)=O)ccc1Nc1c2ccccc2nc2c1[nH]c1ccc(NC3OC(CO)C(O)C(O)C3O)cc12 (centres unmarked) [Compound 24, N-{4-[(7-(glycosyl-1-amino)-10H-indolo[3,2-b]quinoline-11-yl)amino]-3-methoxyphenyl} methanesulfonamide] | 213% | 145% | 90% | 2/6 |  |  |  |  |  |  | 
< 0.3 µg/mL | COc1cc(NS(C)(=O)=O)ccc1Nc1c2ccccc2nc2c1[nH]c1ccc(NC(C)=O)cc12 [Compound 25] | 135% | 174% |  |  |  |  |  |  |  |  | 
< 0.3 µg/mL | COc1cc(NS(C)(=O)=O)ccc1Nc1c2ccccc2nc2c1[nH]c1ccc(NS(C)(=O)=O)cc12 [Compound 26, 2-methanesulfonamide-6-(4-methanesulfonamide-2-methoxyanilino)indolo[3,2-b]quinoline] | 126% | 111% |  |  |  |  |  |  |  |  | 
0.38 µg/mL (≈ 0.849 µM) | COc1cc(NS(C)(=O)=O)ccc1Nc1c2cccc(C)c2nc2c1oc1ccccc12 [Compound 27, 6-(4-methanesulfonamide-2-methoxyanilino)-10-methylbenzofurano[3,2-b]quinoline] |  |  |  |  |  | 230% | 250% | 1/6 |  |  | 
< 0.3 µg/mL | COc1cc(NS(C)(=O)=O)ccc1Nc1c2cccc(C)c2nc2c1oc1cccc(C)c12 [Compound 28, 6-(4-methanesulfonamide-2-methoxyanilino)-1,10-dimethylbenzofurano[3,2-b]quinoline] |  |  | 204% |  |  | 269% |  |  |  |  | 
< 0.3 µg/mL | COc1cc(NS(C)(=O)=O)ccc1Nc1c2cccc(C)c2nc2c1oc1cc(C)ccc12 [Compound 29, 6-(4-methanesulfonamide-2-methoxyanilino)-3,10-dimethylbenzofurano[3,2-b]quinoline] |  |  |  |  |  | 204% | 269% | 1/6 | 76% | 1/6 | 
1.5 µg/mL (≈ 3.35 µM) | COc1cc(NS(C)(=O)=O)ccc1Nc1c2ccccc2nc2c1oc1cccc(C)c12 [Compound 30, 6-(4-methanesulfonamide-2-methoxyanilino)-1-methylbenzofurano[3,2-b]quinoline] |  |  |  |  |  | 105% | 108% |  | 151% |  | 
< 0.3 µg/mL | COc1cc(NS(C)(=O)=O)ccc1Nc1c2ccccc2nc2c1oc1cc(C)ccc12 [Compound 31, 6-(4-methanesulfonamide-2-methoxyanilino)-3-methylbenzofurano[3,2-b]quinoline] |  |  |  |  |  | 147% | 175% | 1/6 | 219% |  | 1/6
1.4 µg/mL (≈ 3.02 µM) | COc1cc(NS(C)(=O)=O)ccc1Nc1c2cccc(C)c2nc2c1sc1ccccc12 [Compound 32, 6-(4-methanesulfonamide-2-methoxyanilino)-10-methylbenzothieno[3,2-b]quinoline] |  |  |  |  |  | 137% | 167% |  | 228% |  | 
< 0.3 µg/mL | COc1cc(NS(C)(=O)=O)ccc1Nc1c2ccccc2nc2c1sc1cccc(C)c12 [Compound 33, 6-(4-methanesulfonamide-2-methoxyanilino)-1-methylbenzothieno[3,2-b]quinoline] |  |  |  |  |  | 191% | 255% | 1/6 | 280% |  | 1/6
